Results on 17 molecules are retold here after patent US20060041123A1, “Antibacterial agents” (priority 2002, published 2006).

Bounds are passed on as bounds.

One test can be described thus: Antimicrobial activity assay: whole-cell MIC by broth microdilution (NCCLS M7-A6). It is filed as cell-based.
Details: not given
The gist of the method:
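Broth microdilution per NCCLS M7-A6, with serial two-fold compound dilutions from 0.016 to 16 mcg/mL. MIC read as the lowest concentration inhibiting visible growth, using a mirror reader.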
Turning to `COc1ccc2ncc(Cl)c(C(O)CN3CCC(NCc4ccc5c(n4)NC(=O)CO5)CC3)c2n1.Cl.Cl` (racemic) [Example 1, 6-({1-[(Racemic)-2-(3-Chloro-6-methoxy-[1,5]naphthyridin-4-yl)-2hydroxy-ethyl]-piperidin-4-ylamino}-methyl)-4H-pyrido[3,2-b][1,4]oxazin-3-one Dihydrochloride], the MIC is not above 2 µg/mL.

Still in this test, the particulars now being: versus all the organisms named above (S. aureus WCUH29, S. pneumoniae 1629, S. pyogenes CN 10, E. faecalis 2, H. influenzae NEMC1, E. coli 7623, M. catarrhalis Ravasio); read-out: MIC.
With `COc1ccc2ncc(Cl)c(CCN3CCC(NCc4cc5c(cn4)OCCO5)CC3)c2n1.Cl.Cl` [Example 3, {1-[2-(3-Chloro-6-methoxy-[1,5]naphthyridin-4-yl)-ethyl]-piperidin-4-yl}-(2,3-dihydro-[1,4]dioxino[2,3-c]pyridin-7-ylmethyl)-amine Dihydrochloride], the MIC is not above 2 µg/mL. Still for that read-out and setting: with `COc1ccc2ncc(Cl)c(CCN3CC[C@H](NCc4ccc5c(n4)NC(=O)CO5)[C@H](O)C3)c2n1.Cl.Cl` (single isomer, unassigned; enantiomer 2) [Example 10, 6-({(cis)-1-[2-(3-Chloro-6-methoxy-[1,5]naphthyridin-4-yl)-ethyl]-3-hydroxy-piperidin-4-ylamino}-methyl)-4H-pyrido[3,2-b][1,4]oxazin-3-one Dihydrochloride Enantiomer 2] the figure was not above 2 µg/mL. Take `COc1ccc2ncc(Cl)c(CCN3CCC(CO)(NCc4ccc5c(n4)NC(=O)CS5)CC3)c2c1.Cl.Cl` [Example 21, 6-({1-[2-(3-Chloro-6-methoxyquinolin-4-yl)ethyl]4-hydroxymethylpiperidin-4-ylamino}methyl)-4H-pyrido[3,2-b][1,4]thiazin-3-one Dihydrochloride]: the MIC was not above 2 µg/mL. On to `COc1ccc2ncc(F)c(CCN3CCC(NCc4ccc5c(c4)OCCO5)CC3)c2n1` [Example 157, N-(2,3-dihydro-1,4-benzodioxin-6-ylmethyl)-1-{2-[3-fluoro-6-(methoxy)-1,5-naphthyridin-4-yl]ethyl}-4-piperidinamine], for which the MIC is not above 2 µg/mL. For `COc1cc(F)c2ncc(F)c(CCN3CC[C@H](NC(=O)c4ccc5c(n4)NC(=O)CS5)[C@H](F)C3)c2c1.Cl` (single isomer, unassigned; enantiomer 1) [Example 151, cis-N-(1-{2-[3,8-difluoro-6-(methoxy)-4-quinolinyl]ethyl}-3-fluoro-4-piperidinyl)-3-oxo-3,4-dihydro-2H-pyrido[3,2-b][1,4]thiazine-6-carboxamide hydrochloride Enantiomer 1], the MIC was not above 2 µg/mL. As to `COc1ccc2ncc(Cl)c(C(O)CN3CCC(NCc4cc5c(cn4)OCCO5)CC3)c2n1.Cl.Cl` (single isomer, unassigned; enantiomer 1) [Example 35, {1-[2-(3-Chloro-6-methoxy-[1,5]naphthyridin-4-yl)-2-hydroxyethyl]-piperidin-4-yl}-(2,3-dihydro-[1,4]dioxino[2,3-c]pyridin-7-ylmethyl)-amine Dihydrochloride Enantiomer 1], the MIC was not above 2 µg/mL.

In the case of `COc1ccc2ncc(F)c(CCN3CC[C@@H](NCc4ccc5c(n4)NC(=O)CO5)[C@H](O)C3)c2c1.Cl.Cl` (relative stereo) [Example 133, trans-6-{[(1-{2-[3-fluoro-6-(methoxy)-4-quinolinyl]ethyl}-3-hydroxy-4-piperidinyl)amino]methyl}-2H-pyrido[3,2-b][1,4]oxazin-3(4H)-one dihydrochloride], the MIC was not above 2 µg/mL.

Consider `COc1cc(F)c2ncc(F)c(CCN3CC[C@H](NCc4ccc5c(n4)NC(=O)CO5)[C@H](F)C3)c2c1.Cl.Cl` (single isomer, unassigned; enantiomer 1) [Example 145, cis-6-{[(1-{2-[3,8-difluoro-6-(methoxy)-4-quinolinyl]ethyl}-3-fluoro-4-piperidinyl)amino]methyl}-2H-pyrido[3,2-b][1,4]oxazin-3(4H)-one dihydrochloride, Enantiomer 1], for which the MIC is not above 2 µg/mL. `COc1ccc2ncc(Br)c(CCN3CCC(NCc4cc5c(cn4)OCCO5)CC3)c2c1.Cl.Cl` [Example 44, {1-[2-(3-Bromo-6-methoxy-quinolin-4-yl)-ethyl]-piperidin-4-yl}-(2,3-dihydro-[1,4]dioxino[2,3-c]pyridin-7-ylmethyl)-amine Dihydrochloride]: the MIC was not above 2 µg/mL. With `COc1cc(F)c2ncc(F)c(CCN3CC[C@H](NCc4ccc5c(n4)NC(=O)CS5)[C@H](O)C3)c2c1.Cl.Cl` (single isomer, unassigned; enantiomer 1) [Example 73], the MIC is not above 2 µg/mL. As to `COc1ccc2ncc(Cl)c(CCN3CC[C@H](NCc4cc5c(cn4)OCCO5)[C@H](O)C3)c2c1.Cl.Cl` (single isomer, unassigned; enantiomer 1) [Example 45, cis-1-[2-(3-Chloro-6-methoxy-quinolin-4-yl)-ethyl]-4-[(2,3-dihydro-[1,4]dioxino[2,3-c]pyridin-7-ylmethyl)-amino]-piperidin-3-ol Dihydrochloride Enantiomer 1], the MIC was not above 2 µg/mL.

In the case of `COc1ccc2ncc(F)c(CCN3CCC(CO)(NCc4cc5c(cn4)OCCO5)CC3)c2c1.Cl.Cl` [Example 92, (4[(2,3-dihydro[1,4]dioxino[2,3-c]pyridin-7-ylmethyl)amino]-1-{2-[3-fluoro-6-(methoxy)-4-quinolinyl]ethyl}-4-piperidinyl)methanol dihydrochloride], the MIC was not above 2 µg/mL. As for `COc1ccc2ncc(F)c(CCN3CCC(NCc4ccc5c(c4)NC(=O)CCS5)CC3)c2n1` [Example 128, 7-{[(1-{2-[3-fluoro-6-(methoxy)-1,5-naphthyridin-4-yl]ethyl}-4-piperidinyl)amino]methyl}-2,3-dihydro-1,5-benzothiazepin-4(5H)-one], the MIC is not above 2 µg/mL. As for `COc1ccc2ncc(Cl)c(CCN3CC[C@H](NCc4ccc5c(n4)NC(=O)CS5)[C@H](O)C3)c2c1.Cl.Cl` (single isomer, unassigned; enantiomer 1) [Example 7, 6-({(cis)-1-[2-(3-Chloro-6-methoxy-quinolin-4-yl)-ethyl]-3-hydroxy-piperidin-4-ylamino}-methyl)-4H-pyrido[3,2-b][1,4]thiazin-3-one Dihydrochloride Enantiomer 1], the MIC was not above 2 µg/mL. As to `COc1ccc2ncc(F)c(CCN3CCC(NCc4cnc5c(c4)NC(=O)CS5)CC3)c2n1.Cl.Cl` [Example 56, 7-{[(1-(2-[3-fluoro-6-(methoxy)-1,5-naphthyridin-4-yl]ethyl}-4-piperidinyl)amino]methyl}-1H-pyrido[2,3-b][1,4]thiazin-2(3H)-one dihydrochloride], the MIC is not above 2 µg/mL.

As for `COc1ccc2ncc(F)c(C(O)CN3CCC(NCc4cc5c(cn4)OCCO5)CC3)c2c1.Cl.Cl` (single isomer, unassigned; enantiomer 1) [Example 156, 2-{4-[(2,3-dihydro[1,4]dioxino[2,3-c]pyridin-7-ylmethyl)amino]-1-piperidinyl}-1-[3-fluoro-6-(methoxy)-4-quinolinyl]ethanol dihydrochloride Enantiomer 1], the MIC is not above 2 µg/mL.
